Paper PMC9091252 (Nature Communications, 2022)
Where “and” joins values, the source holds several entries; their conditions need not be identical. Equal values may be shown once.

Tests used:
[1] = target: SARS-CoV-2; assay: AFM inhibition assay: binding probability between SARS-CoV-2 virions and 9-AcSA coated surfaces before and after incubation with oligomers; conditions: for relative BP, Mean: mean of 3 tips, 0 uM = 1; for relative BP, single tip: normalized to 0 uM = 1
[2] = target: S1 subunit (Severe acute respiratory syndrome coronavirus 2, UniProt P0DTC2); assay: Dynamic force spectroscopy and kinetic on-rate analysis of the S1 – 9-AcSA bond; type: binding, SARS-CoV-2
[3] = target: S1 domain of SARS-CoV-2 (Severe acute respiratory syndrome coronavirus 2, UniProt P0DTC2); assay: FD-based AFM binding probability of S1-functionalized tip on 9-AcSA, SA or streptavidin coated surfaces

Compound | IC50 [1] [µM] | relative BP, Mean ([1]; 1 uM) | relative BP, single tip ([1]; 1 uM) | relative BP, Mean ([1]; 10 uM) | relative BP, single tip ([1]; 10 uM) | relative BP, Mean ([1]; 100 uM) | relative BP, single tip ([1]; 100 uM) | reduction in the binding probability ([1]; over the explored range 1, 10, 100 µM) | koff ([2]; Bell-Evans fit, single S1 – 9-AcSA bond) [s⁻¹] | KD ([2]; ratio between koff and kon) | Kd ([2]; ratio between koff and kon) [µM] | binding probability in competition assay with free 9-AcSA ([3]; S1 tip on 9-AcSA surface, free 1 mM 9-AcSA) | difference in binding probability between acetylated and non-acetylated SA ([3]; S1 tip, 9-AcSA versus SA coated surface) | relative BP, single tip ([1]; 1 uM, listed as Pillar[5]arene NonAc) | relative BP, single tip ([1]; 10 uM, listed as Pillar[5]arene NonAc) | relative BP, single tip ([1]; 100 uM, listed as Pillar[5]arene NonAc)
9-O-acetylated sialic acid [9-AcSA] | > 100 | 0.8501 | 0.7609 and 0.6994 and 1.09 | 0.807 | 0.7029 and 0.638 and 1.08 | 0.638 | 0.587 and 0.4969 and 0.83 | 20-30% | 0.24 ± 0.2 | low micromolar range | 5.7 ± 5 | significantly lower BP | ~ 3 fold | – | – | –
CC(=O)N[C@H]1[C@H]([C@H](O)[C@H](O)CO)O[C@@](OCc2cn(CCOc3cc4c(OCCn5cc(CO[C@]6(C(=O)O)C[C@H](O)[C@@H](NC(C)=O)[C@H]([C@H](O)[C@H](O)CO)O6)nn5)cc3Cc3cc(OCCn5cc(CO[C@]6(C(=O)O)C[C@H](O)[C@@H](NC(C)=O)[C@H]([C@H](O)[C@H](O)CO)O6)nn5)c(cc3OCCn3cc(CO[C@]5(C(=O)O)C[C@H](O)[C@@H](NC(C)=O)[C@H]([C@H](O)[C@H](O)CO)O5)nn3)Cc3cc(OCCn5cc(CO[C@]6(C(=O)O)C[C@H](O)[C@@H](NC(C)=O)[C@H]([C@H](O)[C@H](O)CO)O6)nn5)c(cc3OCCn3cc(CO[C@]5(C(=O)O)C[C@H](O)[C@@H](NC(C)=O)[C@H]([C@H](O)[C@H](O)CO)O5)nn3)Cc3cc(OCCn5cc(CO[C@]6(C(=O)O)C[C@H](O)[C@@H](NC(C)=O)[C@H]([C@H](O)[C@H](O)CO)O6)nn5)c(cc3OCCn3cc(CO[C@]5(C(=O)O)C[C@H](O)[C@@H](NC(C)=O)[C@H]([C@H](O)[C@H](O)CO)O5)nn3)Cc3cc(OCCn5cc(CO[C@]6(C(=O)O)C[C@H](O)[C@@H](NC(C)=O)[C@H]([C@H](O)[C@H](O)CO)O6)nn5)c(cc3OCCn3cc(CO[C@]5(C(=O)O)C[C@H](O)[C@@H](NC(C)=O)[C@H]([C@H](O)[C@H](O)CO)O5)nn3)C4)nn2)(C(=O)O)C[C@@H]1O [compound 4] | – | 0.7825 | – | 0.836 | – | 0.9261 | – | – | – | – | – | – | – | 0.6071 and 0.8687 and 0.8718 | 0.7738 and 0.9394 and 0.7949 | 0.9286 and 0.9394 and 0.9103
